These are literature values, as cited in US12687554B2, “Molecular profiling of tumors” (Caris MPI, Inc., priority 2006, dated 2026).

In the series the test system is differentially expressed or mutated biomarker in cancer cells.
Setting [1] is: EGFR, FISH, Positive, with loss of PTEN, mutation of KRAS or BRAF per Summary.
Setting [2] is: EGFR, Mutational Analysis, Mutated.
Setting [3] is: EGFR, Mutational Analysis, Wild type genotype.
The mark [4] stands for this setting: PTEN, IHC, Above Threshold, with the other biomarker results named in the Summary.
The mark [5] stands for this setting: biomarker PTEN, IHC, result Above Threshold, with the other biomarker results named in the Summary.
Setting [6] is: biomarker PTEN, IHC, result Negative (loss of PTEN protein expression).
[7] abbreviates: KRAS, Mutational Analysis, Mutated.
[8] abbreviates: KRAS, Mutational Analysis, Wild type genotype.
[9] abbreviates: KRAS, Mutational Analysis, Wild type genotype, with loss of PTEN and/or FISH negative EGFR per Summary.
Where [10] appears, read: biomarker EGFR, FISH, result Negative (lack of EGFR gene copy number increase).
Where [11] appears, read: biomarker EGFR, FISH, result Positive (high EGFR gene copy number).
Setting [12] is: biomarker EGFR, FISH, result Positive, with the other biomarker results named in the Summary.
Where [13] appears, read: biomarker EGFR, Mutational Analysis, result Mutated.
Where [14] appears, read: biomarker EGFR, Mutational Analysis, result Mutated, with the other biomarker results named in the Summary.
Setting [15] is: biomarker EGFR, Mutational Analysis, result Wild type genotype.
The mark [16] stands for this setting: biomarker KRAS, Mutational Analysis, result Wild type genotype.
[17] abbreviates: biomarker KRAS, Mutational Analysis, result Wild type genotype, with the other biomarker results named in the Summary.
[18] abbreviates: biomarker KRAS, Mutational Analysis, result Mutated.

“Also recorded” adds a separate entry of the source. Where two headings read alike, the source gives them in different places.

Consider `CC1=C(/C=C/C(C)=C/C=C/C(C)=C/C(=O)O)C(C)(C)CCC1` [ATRA], for which the “Recommended Agents” value (RARA, Microarray, Overexpressed, for use only on hematologic malignancies) was “ATRA”.

Take `C#Cc1cccc(Nc2ncnc3cc(OCCOC)c(OCCOC)cc23)c1` [Erlotinib]: the “Resistant Agents” value reads like this: (EGFR, FISH, Negative) “Erlotinib”; under setting [1], “Erlotinib”; under setting [3], “Erlotinib”; (PTEN, IHC, Negative) “Erlotinib,”; under setting [5], “Erlotinib”; under setting [6], “Erlotinib,; also recorded: Erlotinib”. Further, the “Recommended Agents” value under setting [2] is on record as “Erlotinib” and the “Recommended Agents” value under setting [4] was “Erlotinib; also recorded: Erlotinib,”.

Take `COc1cc2ncnc(Nc3ccc(F)c(Cl)c3)c2cc1OCCCN1CCOCC1` [Gefitinib]: the “Resistant Agents” value is “Gefitinib” (EGFR, FISH, Negative); “Gefitinib” under setting [1]; “Gefitinib” under setting [3]; “Gefitinib” under setting [4]; “Gefitinib” under setting [5]; “Gefitinib,; also recorded: Gefitinib” under setting [6]. Moreover, the “Recommended Agents” value is “Gefitinib” under setting [2] and “Gefitinib; also recorded: Gefitinib,” under setting [4].

Take `CC(=O)Oc1ccccc1C(=O)O` [aspirin]: where the note is “COX-2, IHC, Above Threshold”, the “Recommended Agents” value was “aspirin”. Also, where the note is “COX-2, IHC, Negative”, the “Resistant Agents” value is reported as “aspirin”.

In the case of `CC(=O)Oc1ccccc1C(=O)O` [asprin], the “Recommended Agents” value (COX-2, Microarray, Overexpressed) is given as “asprin”.

As for `C#Cc1cccc(Nc2ncnc3cc(OCCOC)c(OCCOC)cc23)c1` [erlotinib], the “Resistant Agents” value is, setting by setting: (EGFR, FISH, Negative) “erlotinib”; under setting [1], “erlotinib”; under setting [7], “erlotinib”; under setting [9], “erlotinib”; under setting [4], “erlotinib”; (PTEN, IHC, Negative) “erlotinib”. Besides, the “Resistant Agents” value under setting [10] was “erlotinib”; the “Resistant Agents” value under setting [12] is reported as “erlotinib”; the “Resistant Agents” value under setting [14] was “erlotinib”; the “Resistant Agents” value under setting [15] is on record as “erlotinib”; the “Resistant Agents” value under setting [17] is “erlotinib”; the “Resistant Agents” value under setting [5] is listed as “erlotinib”. Under setting [6], the “Resistant Agents” value is given as “erlotinib,”. The “Recommended Agents” value (EGFR, FISH, Positive) is reported as “erlotinib”; the “Recommended Agents” value under setting [8] was “erlotinib”; the “Recommended Agents” value under setting [4] is “erlotinib”; the “Recommended Agents” value under setting [11] is recorded as “erlotinib”; the “Recommended Agents” value under setting [13] was “erlotinib”; the “Recommended Agents” value under setting [16] is recorded as “erlotinib”.

As to `COc1cc2ncnc(Nc3ccc(F)c(Cl)c3)c2cc1OCCCN1CCOCC1` [gefitinib], the “Recommended Agents” value is, setting by setting: (EGFR, FISH, Positive) “gefitinib”; under setting [8], “gefitinib”; under setting [4], “gefitinib”; under setting [11], “gefitinib”; under setting [13], “gefitinib”; under setting [16], “gefitinib”. Moreover, under “biomarker PTEN, IHC, result Above Threshold”, the “Recommended Agents” value is on record as “gefitinib”. Moreover, the “Resistant Agents” value is “gefitinib” under setting [1]; “gefitinib” under setting [7]; “gefitinib” under setting [9]; “gefitinib” under setting [4]; “gefitinib” (PTEN, IHC, Negative); “gefitinib” under setting [10]. Moreover, the “Resistant Agents” value reads like this: under setting [12], “gefitinib”; under setting [14], “gefitinib”; under setting [15], “gefitinib”; under setting [18], “gefitinib”; under setting [17], “gefitinib”; under setting [5], “gefitinib”.

Regarding `Cc1ccc(NC(=O)c2ccc(CN3CCN(C)CC3)cc2)cc1Nc1nccc(-c2cccnc2)n1` [imatinib], the “Recommended Agents” value is “imatinib” (c-kit, Mutational Analysis, Mutated, mutations in exon 9) and “imatinib” (c-kit, Mutational Analysis, Wild type genotype). Also, the “Resistant Agents” value (c-kit, Mutational Analysis, Mutated, mutations in exon 11) is listed as “imatinib”.

As for `CS(=O)(=O)CCNCc1ccc(-c2ccc3ncnc(Nc4ccc(OCc5cccc(F)c5)c(Cl)c4)c3c2)o1` [lapatinib], the “Recommended Agents” value by setting is: (Her2/Neu, FISH, Amplified) “lapatinib”; (Her2/Neu, IHC, Above Threshold) “lapatinib”. Besides, the “Resistant Agents” value by setting is: (Her2/Neu, FISH, Not Amplified) “lapatinib”; (Her2/Neu, IHC, Negative) “lapatinib”; under setting [4], “lapatinib”; (PTEN, IHC, Negative) “lapatinib”.

Consider Panitumumab, for which the “Resistant Agents” value is, setting by setting: under setting [1], “Panitumumab,”; under setting [5], “Panitumumab,”; under setting [6], “Panitumumab,”. Besides, under setting [4], the “Recommended Agents” value was “Panitumumab,”.

In the case of panitumumab, the “Resistant Agents” value (BRAF, Mutational Analysis, Mutated) is recorded as “panitumumab”; the “Resistant Agents” value (BRAF, Mutational Analysis, Wild type genotype, with loss of PTEN and/or FISH negative EGFR per Summary) was “panitumumab”; the “Resistant Agents” value under setting [1] is reported as “panitumumab,”; the “Resistant Agents” value under setting [7] is “panitumumab,”; the “Resistant Agents” value under setting [9] is “panitumumab,”; the “Resistant Agents” value under setting [4] is “panitumumab,”. Further, the “Resistant Agents” value runs as follows: (PTEN, IHC, Negative) “panitumumab,”; (biomarker BRAF, Mutational Analysis, result Mutated) “panitumumab”; (biomarker BRAF, Mutational Analysis, result Wild type genotype, with the other biomarker results named in the Summary) “panitumumab”; under setting [10], “panitumumab,”; under setting [12], “panitumumab,”; under setting [18], “panitumumab,”. Moreover, the “Resistant Agents” value runs as follows: under setting [17], “panitumumab,”; under setting [5], “panitumumab,”; under setting [6], “panitumumab,”. Further, the “Recommended Agents” value is reported as “panitumumab” (BRAF, Mutational Analysis, Wild type genotype); “panitumumab,” under setting [8]; “panitumumab,; also recorded: panitumumab” under setting [4].
